Test results taken from patent publication US11684682B2, “Chelating AAZTA conjugates and complexes thereof” (BRACCO IMAGING S.P.A., priority 2018, dated 2023).
Like-named read-outs stand apart in the source and are kept apart here. One block for each compound: values may come before it.

Columns and labels:
[1] = Equilibrium study of Bi(AAZTA): competition of AAZTA with NTA for Bi^3+ by UV-spectrophotometry; type: physicochemical; settings: 0.15 M NaClO4
Description: The stability constant of Bi(AAZTA) was determined by following the competition reaction of AAZTA with NTA for Bi^3+ (Eq. (10)) with UV-spectrophotometry in the wavelength range of 210-350 nm. The concentration of Bi^3+ and NTA was 30.2 μM and 10 mM while that of the AAZTA was varied between 0 and 50 μM (6×2 mL samples with the addition of AAZTA to the pre-prepared Bi(NTA)2 complex) in 0.15 M NaClO4 solution. The pH was adjusted to pH=7.4 by stepwise addition of concentrated NaOH or HClO4. The samples were kept at 50° C. for a week and at 25° C. for two weeks in order to attain the equilibrium (the time needed to reach the equilibria was determined by spectrophotometry). The spectrophotometric measurements were made with the use of PerkinElmer Lambda 365 UV-Vis spectrophotometer at 25° C., using 1.0 cm cells. For the equilibrium calculation, the protonation constants of AAZTA and NTA ligands (AAZTA: log K1^H=10.29, log K2^H=6.51, log K3^H=3.86, log K4^H=1.94, log K5^H=1.00; NTA: log K1^H=9.22, log K2^H=2.98, log K3^H=1.06; 25° C., 0.15 M NaClO4) and the stability constants of Bi(NTA) and Bi(NTA)2 complexes (log KBi(NTA)=16.97, log βBi(NTA)2=26.21, 25° C., 0.15 M NaClO4) have been determined as it is described in the literature (Baranyai, Eur. J. Inorg. Chem., 2013, 147-162, KARADAKOV, Talanta, 1970, 17, 883-887). The equilibrium constants were calculated with the program PSEQUAD (L. Zekany and I. Nagypal in PSEQUAD, Vol. (Ed. D. Leggett), Springer US, 1985, pp. 291-353). Bi(NTA)2+HxAAZTA ? Bi(AAZTA)+2HyNTA (10) Thermodynamic stability constant of Bi(AAZTA) calculated from the UV-spectrophotometric studies of Bi^3+-NTA-AAZTA systems is log KBi(AAZTA)=26.45 (6) at 25° C. in 0.15 M NaClO4. By taking into account the protonation constant of AAZTA ligand (log K1^H=10.29, log K2^H=6.51, log K3^H=3.86, log K4^H=1.94, log K5^H=1.00, 25° C., 0.15 M NaClO4) and the stability constant of Bi(AAZTA) (log KBi(AAZTA)=26.45, 25° C. in 0.15 M NaClO4), the conditional stability constant of Bi(AAZTA) was calculated to be log K^condBi(AAZTA)=log KBi(AAZTA)/(1+αH)=23.5 at pH=7.4 and 25° C. in 0.15 M NaClO4 (αH=K1^H[H^+]+K1^HK2^H[H^+]^2+ . . . +K1^HK2^H . . . Kn^H[H^+]^n and K1^H, K2^H, . . . Kn^H are the protonation constant of the free ligand at pH=7.4 in 0.15 M NaClO4 solution).

[2] = 0.15 M NaCl, 25° C.; cited from earlier work
[3] = Transchelation reaction between Bi(AAZTA) and DTPA by UV-spectrophotometry; type: physicochemical; settings: pH=9.0, 25° C., 0.15 M NaClO4
Description: The kinertic properties of Bi(AAZTA) was determined by following the transchelation reaction between Bi(AAZTA) and DTPA with UV-spectrophotometry at 278 nm and 25° C. in 0.15 M NaClO4 solution (stability constant of Bi(DTPA) is log KBi(DTPA)=29.3 at 25° C. in 0.6 M NaClO4, V. Kornev, A. Troubachev, Russ. J. Inorg. Chem, 1987, 32, 1419). In these experiments the concentration of Bi(AAZTA) was 0.1 mM while DTPA was applied in 10 and 20 fold excess to ensure the occurrence of pseudo-first order conditions. The pH was adjusted to 8.5, 9.0, 9.5, 10.0, 10.5 and 11.0 by stepwise addition of concentrated NaOH or HClO4. For keeping the pH values constant 0.01 M N-methyl-piperazine (pH≤10) buffers were used. At pH>10, buffer was not used to keep the constant pH due to the presence of OH^− in a high concentration. The pseudo-first-order rate constants (kd) were calculated by fitting the absorbance—time data sets for Bi(AAZTA)—DTPA system to Eq. (9). The dissociation rates (kd) of Bi(AAZTA) complex is independent from the [DTPA] and increase with the increase of pH.

[4] = type: physicochemical; settings: 25° C., 0.15 M NaCl
Text: The thermodynamic properties of Sc(AAZTA-TATE) complex were characterized by the conditional stability constant (log K^cond=log K^therm/(1+αH) where αH=K1^H[H^+]+K1^HK2^H[H^+]^2+ . . . +K1^HK2^H . . . Kn^H[H^+]^n and K1^H, K2^H, . . . Kn^H are the protonation constant of the free ligand) at pH=7.4 in 0.15 M NaCl solution. To determine the log K^cond value of Sc(AAZTA-TATE) complex, the competition reaction of AAZTA-TATE with NTA for Sc^3+ have been studied by ^45Sc NMR spectroscopy (Bruker Avance III 400 spectrometer at 9.4 T) with the integral of Sc(NTA)2 complex (δSc=59.9 ppm) formed in the reactions (Eq. (4), H3NTA=nitrilo-triacetic acid, pH=7.4, 25° C., 0.15 M NaCl).
[formula] For the equilibrium characterization of Sc(AAZTA-TATE), 7 samples were prepared in which the concentration of Sc^3+ and AAZTA-TATE was 203.3 μM and 206.2 μM, while that of the NTA was varied between 0.0 and 20.06 mM (7×1 mL samples were prepared by the addition of AAZTA-TATE to the pre-prepared Sc(NTA)2 complex) in 0.15 M NaCl solution. […] The samples were kept at 25° C. for 8 weeks in order to attain the equilibrium (the time needed to reach the equilibria was determined by ^45Sc NMR spectroscopy).
To compare the equilibrium properties of Sc(AAZTA-TATE) with that of Sc(AAZTA), the conditional stability constant of Sc(AAZTA) was determined by following the competition reaction of AAZTA with NTA for Sc^3+ with ^45Sc NMR spectroscopy by using the integral of Sc(NTA)2 complex (δSc=59.9 ppm) formed in the reactions (Eq. (5), pH=7.4, 25° C., 0.15 M NaCl).
For the equilibrium characterization of Sc(AAZTA), 7 samples were prepared in which the concentration of Sc^3+ and AAZTA was 203.3 μM and 207.1 μM, while that of the NTA was varied between 0 and 20.06 mM (7×2 mL samples with the addition of AAZTA to the pre-prepared […] complex) in 0.15 M NaCl solution. […] The samples were kept at 25° C. for 8 weeks in order to attain the equilibrium (the time needed to reach the equilibria was determined by ^45Sc NMR spectroscopy). […]

log K1^H (protonation constant) ([1]; 25° C.): 10.29 | log K2^H (protonation constant) ([1]; 25° C.): 6.51 | log K3^H (protonation constant) ([1]; 25° C.): 3.86 | log K4^H (protonation constant) ([1]; 25° C.): 1.94 | log K5^H (protonation constant) ([1]; 25° C.): 1.00
Compound: CC1(N(CC(=O)O)CC(=O)O)CN(CC(=O)O)CCN(CC(=O)O)C1 [AAZTA, 6-amino-6-methylperhydro-1,4-diazepinetetraacetic acid]
log K1^H (protonation constant) [2]: 9.98 | log K2^H (protonation constant) [2]: 6.52 | log K3^H (protonation constant) [2]: 3.76 | log K4^H (protonation constant) [2]: 2.21

log KBi(AAZTA) (thermodynamic stability constant) ([1]; 25° C.): 26.45 (6) | log K^cond (conditional stability constant) ([1]; pH=7.4, 25° C.): 23.5
Compound: CC1(N(CC(=O)[O-])CC(=O)[O-])CN(CC(=O)[O-])CCN(CC(=O)[O-])C1.[Bi+3] [Bi(AAZTA)]
kd (rate constant of dissociation) [3]: 1.67e-06 s⁻¹

log K1^H (protonation constant) ([1]; NTA ligand, 25° C.): 9.22 | log K2^H (protonation constant) ([1]; NTA ligand, 25° C.): 2.98 | log K3^H (protonation constant) ([1]; NTA ligand, 25° C.): 1.06 | log K1^H (protonation constant) [4]: 9.13 (1) | log K2^H (protonation constant) [4]: 2.63 (2) | log K3^H (protonation constant) [4]: 1.64 (3)
Compound: O=C(O)CN(CC(=O)O)CC(=O)O [NTA, nitrilo-triacetic acid, reference compound]
